Assay results: PubChem BioAssay AID1918931 (Molecular Pharmacology Branch, DTP, NCI, 2023)

Test system: 138582-337-R-J1-PDC complex spheroid viability
Assay: Anticancer human tumor 138582-337-R-J1-PDC patient-derived Merkel cell tumor cell line growth inhibition
Details: for IC50: curve of first compound; for viability, T/C: stronger effect = lower value
Outline: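 Multicellular complex spheroids of tumor cells with human endothelial cells (HUVEC) and mesenchymal stem cells; the LSD1 inhibitor iadademstat was combined with standard-of-care or investigational agents. Top concentration at or near clinical Cmax, half-log dilutions; final DMSO ≤0.25%.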

[1] = second compound 0.1 µM, first compound 0.00316 µM
[2] = second compound 0.1 µM, first compound 0.01 µM
[3] = second compound 0.1 µM, first compound 0.0316 µM
[4] = second compound 0.1 µM, first compound 0.1 µM
[5] = second compound 0.316 µM, first compound 0.00316 µM
[6] = second compound 0.316 µM, first compound 0.01 µM
[7] = second compound 0.316 µM, first compound 0.0316 µM
[8] = second compound 0.316 µM, first compound 0.1 µM
[9] = second compound 1 µM, first compound 0.00316 µM
[10] = second compound 1 µM, first compound 0.01 µM
[11] = second compound 1 µM, first compound 0.0316 µM
[12] = second compound 1 µM, first compound 0.1 µM
[13] = second compound 3.16 µM, first compound 0.00316 µM
[14] = second compound 3.16 µM, first compound 0.01 µM
[15] = second compound 3.16 µM, first compound 0.0316 µM
[16] = second compound 3.16 µM, first compound 0.1 µM
[17] = second compound 10 µM, first compound 0.00316 µM
[18] = second compound 10 µM, first compound 0.01 µM
[19] = second compound 10 µM, first compound 0.0316 µM
[20] = second compound 10 µM, first compound 0.1 µM
[21] = second compound 0.1 µM, first compound 0.00949 µM
[22] = second compound 0.1 µM, first compound 0.03 µM
[23] = second compound 0.1 µM, first compound 0.0949 µM
[24] = second compound 0.1 µM, first compound 0.3 µM
[25] = second compound 0.1 µM, first compound 0.949 µM
[26] = second compound 0.1 µM, first compound 3 µM
[27] = second compound 0.316 µM, first compound 0.00949 µM
[28] = second compound 0.316 µM, first compound 0.03 µM
[29] = second compound 0.316 µM, first compound 0.0949 µM
[30] = second compound 0.316 µM, first compound 0.3 µM
[31] = second compound 0.316 µM, first compound 0.949 µM
[32] = second compound 0.316 µM, first compound 3 µM
[33] = second compound 1 µM, first compound 0.00949 µM
[34] = second compound 1 µM, first compound 0.03 µM
[35] = second compound 1 µM, first compound 0.0949 µM
[36] = second compound 1 µM, first compound 0.3 µM
[37] = second compound 1 µM, first compound 0.949 µM
[38] = second compound 1 µM, first compound 3 µM
[39] = second compound 3.16 µM, first compound 0.00949 µM
[40] = second compound 3.16 µM, first compound 0.03 µM
[41] = second compound 3.16 µM, first compound 0.0949 µM
[42] = second compound 3.16 µM, first compound 0.3 µM
[43] = second compound 3.16 µM, first compound 0.949 µM
[44] = second compound 3.16 µM, first compound 3 µM
[45] = second compound 10 µM, first compound 0.00949 µM
[46] = second compound 10 µM, first compound 0.03 µM
[47] = second compound 10 µM, first compound 0.0949 µM
[48] = second compound 10 µM, first compound 0.3 µM
[49] = second compound 10 µM, first compound 0.949 µM
[50] = second compound 10 µM, first compound 3 µM
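Note: spheroids exposed to agents for 7 days.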
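Throughout, for viability, T/C: 100% = DMSO vehicle control viability.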

`COc1cc(Nc2ncc3c(n2)-c2ccc(Cl)cc2C(c2c(F)cccc2OC)=NC3)ccc1C(=O)O` + NC1CC1c1ccc(-c2cccc(O)c2)cc1 was tested, and the IC50 (second compound 0.1 µM) was 355 nM, the IC50 (second compound 0.316 µM) was 210 nM and the IC50 (second compound 1 µM) was 222 nM. It also gave an IC50 (second compound 3.16 µM) of 183 nM, an IC50 (second compound 10 µM) of 463 nM and a viability, T/C [1] of 66.5%. It also gave a viability, T/C [2] of 76.5%, a viability, T/C [3] of 61.4% and a viability, T/C [4] of 66.4%. It also gave a viability, T/C (second compound 0.1 µM, first compound 0.316 µM) of 51.9%, a viability, T/C (second compound 0.1 µM, first compound 1 µM) of 28.4% and a viability, T/C [5] of 64.7%. It also gave a viability, T/C [6] of 69.4%, a viability, T/C [7] of 60.1% and a viability, T/C [8] of 64.3%. The viability, T/C (second compound 0.316 µM, first compound 0.316 µM) was 42.1%, the viability, T/C (second compound 0.316 µM, first compound 1 µM) was 30.6% and the viability, T/C [9] was 70.8%. It also gave a viability, T/C [10] of 79.4%, a viability, T/C [11] of 64.9% and a viability, T/C [12] of 59%. The viability, T/C (second compound 1 µM, first compound 0.316 µM) was 46.7%, the viability, T/C (second compound 1 µM, first compound 1 µM) was 33.2% and the viability, T/C [13] was 70.4%. For the same compound, the viability, T/C [14] was 89.8%, the viability, T/C [15] was 82.5% and the viability, T/C [16] was 60.7%. The viability, T/C (second compound 3.16 µM, first compound 0.316 µM) was 41.9%, the viability, T/C (second compound 3.16 µM, first compound 1 µM) was 38.8% and the viability, T/C [17] was 82.6%. For the same compound, the viability, T/C [18] was 97%, the viability, T/C [19] was 80.2% and the viability, T/C [20] was 80.9%. It also gave a viability, T/C (second compound 10 µM, first compound 0.316 µM) of 57.2% and a viability, T/C (second compound 10 µM, first compound 1 µM) of 34.8%.

With `Cn1ncnc1C1c2n[nH]c(=O)c3cc(F)cc(c23)NC1c1ccc(F)cc1` (stereo not given) + NC1CC1c1ccc(-c2cccc(O)c2)cc1 the IC50 (second compound 0.1 µM) was > 100 nM, the IC50 (second compound 0.316 µM) was > 100 nM and the IC50 (second compound 1 µM) was > 100 nM. The IC50 (second compound 3.16 µM) was > 100 nM, the IC50 (second compound 10 µM) was > 100 nM and the viability, T/C (second compound 0.1 µM, first compound 0.000316 µM) was 88.1%. It also gave a viability, T/C (second compound 0.1 µM, first compound 0.001 µM) of 80.2%, a viability, T/C [1] of 83.3% and a viability, T/C [2] of 69.9%. It also gave a viability, T/C [3] of 62.3%, a viability, T/C [4] of 67.3% and a viability, T/C (second compound 0.316 µM, first compound 0.000316 µM) of 72.5%. For the same compound, the viability, T/C (second compound 0.316 µM, first compound 0.001 µM) was 88.3%, the viability, T/C [5] was 74.2% and the viability, T/C [6] was 71%. It also gave a viability, T/C [7] of 66%, a viability, T/C [8] of 70.7% and a viability, T/C (second compound 1 µM, first compound 0.000316 µM) of 79.8%. It also gave a viability, T/C (second compound 1 µM, first compound 0.001 µM) of 83.7%, a viability, T/C [9] of 73% and a viability, T/C [10] of 86.2%. The viability, T/C [11] was 82.2%, the viability, T/C [12] was 77% and the viability, T/C (second compound 3.16 µM, first compound 0.000316 µM) was 80.4%. For the same compound, the viability, T/C (second compound 3.16 µM, first compound 0.001 µM) was 91.3%, the viability, T/C [13] was 82.5% and the viability, T/C [14] was 81.1%. For the same compound, the viability, T/C [15] was 72.1%, the viability, T/C [16] was 77.5% and the viability, T/C (second compound 10 µM, first compound 0.000316 µM) was 99%. The viability, T/C (second compound 10 µM, first compound 0.001 µM) was 96.1%, the viability, T/C [17] was 100% and the viability, T/C [18] was 84.3%. It also gave a viability, T/C [19] of 82.7% and a viability, T/C [20] of 81.2%.

Work on `NS(=O)(=O)OCC1CC(n2ccc3c(NC4CCc5ccccc54)ncnc32)CC1O` (stereo not given) + NC1CC1c1ccc(-c2cccc(O)c2)cc1 yielded an IC50 (second compound 0.1 µM) of 78.9 nM, an IC50 (second compound 0.316 µM) of 73.7 nM and an IC50 (second compound 1 µM) of 72.6 nM. It also gave an IC50 (second compound 3.16 µM) of 100 nM, an IC50 (second compound 10 µM) of 141 nM and a viability, T/C [21] of 83.6%. It also gave a viability, T/C [22] of 63.1%, a viability, T/C [23] of 48.4% and a viability, T/C [24] of 34.3%. The viability, T/C [25] was 15.5%, the viability, T/C [26] was 15% and the viability, T/C [27] was 72.6%. It also gave a viability, T/C [28] of 59%, a viability, T/C [29] of 48.4% and a viability, T/C [30] of 34.3%. The viability, T/C [31] was 24.2%, the viability, T/C [32] was 15.6% and the viability, T/C [33] was 82.2%. It also gave a viability, T/C [34] of 56.3%, a viability, T/C [35] of 50.3% and a viability, T/C [36] of 35.8%. It also gave a viability, T/C [37] of 15.6%, a viability, T/C [38] of 14.6% and a viability, T/C [39] of 86.2%. The viability, T/C [40] was 63.7%, the viability, T/C [41] was 51.7% and the viability, T/C [42] was 40.7%. It also gave a viability, T/C [43] of 17.4%, a viability, T/C [44] of 14% and a viability, T/C [45] of 103%. It also gave a viability, T/C [46] of 68.1%, a viability, T/C [47] of 65.6% and a viability, T/C [48] of 37.1%. For the same compound, the viability, T/C [49] was 20.4% and the viability, T/C [50] was 16.1%.

With `O=C(C=Cc1cccc(S(=O)(=O)Nc2ccccc2)c1)NO` + NC1CC1c1ccc(-c2cccc(O)c2)cc1 the IC50 (second compound 0.1 µM) was 90.7 nM, the IC50 (second compound 0.316 µM) was 74.9 nM and the IC50 (second compound 1 µM) was < 9.49 nM. The IC50 (second compound 3.16 µM) was 64.8 nM, the IC50 (second compound 10 µM) was 113 nM and the viability, T/C [21] was 67.6%. It also gave a viability, T/C [22] of 64.1%, a viability, T/C [23] of 49.6% and a viability, T/C [24] of 36.1%. It also gave a viability, T/C [25] of 0.36%, a viability, T/C [26] of 69.3% and a viability, T/C [27] of 58%. It also gave a viability, T/C [28] of 53.2%, a viability, T/C [29] of 48.6% and a viability, T/C [30] of 21.1%. For the same compound, the viability, T/C [31] was 0.35%, the viability, T/C [32] was 59.1% and the viability, T/C [33] was 44.8%. The viability, T/C [34] was 51%, the viability, T/C [35] was 49.6% and the viability, T/C [36] was 25%. For the same compound, the viability, T/C [37] was 0.46%, the viability, T/C [38] was 49.2% and the viability, T/C [39] was 49.9%. For the same compound, the viability, T/C [40] was 63.3%, the viability, T/C [41] was 45.2% and the viability, T/C [42] was 25.6%. The viability, T/C [43] was 0.37%, the viability, T/C [44] was 30.9% and the viability, T/C [45] was 66.8%. It also gave a viability, T/C [46] of 57.6%, a viability, T/C [47] of 53.6% and a viability, T/C [48] of 29.8%. The viability, T/C [49] was 0.44% and the viability, T/C [50] was 41.2%.
